Laboratory results: PubChem BioAssay (NCI)
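Growth conditions: 96-well plates. Treatment: test compound, 48 hours, 5 concentrations. Analysis: linear interpolation between bracketing concentrations; unreached endpoints set to highest concentration. At the TGI there is no net growth.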

Legend:
Assay in all cases: growth of human tumour cells (NCI), 48 h
A549 NSCLC = tested on: A549 NSCLC
ACHN renal = tested on: ACHN renal
HCC-2998 colon = tested on: HCC-2998 colon
HCT-116 colon = tested on: HCT-116 colon
HCT-15 colon = tested on: HCT-15 colon
HT29 colon = tested on: HT29 colon
IGROV1 ovarian = tested on: IGROV1 ovarian
K-562 leukemia = tested on: K-562 leukemia
LOX IMVI melanoma = tested on: LOX IMVI melanoma
OVCAR-3 ovarian = tested on: OVCAR-3 ovarian
PC-3 prostate = tested on: PC-3 prostate
RPMI-8226 leukemia = tested on: RPMI-8226 leukemia
RXF 393 renal = tested on: RXF 393 renal
SF-295 CNS = tested on: SF-295 CNS
SK-MEL-5 melanoma = tested on: SK-MEL-5 melanoma
SN12C renal = tested on: SN12C renal
SW-620 colon = tested on: SW-620 colon
HOP-92 NSCLC = tested on: HOP-92 NSCLC
NCI-H522 lung = tested on: NCI-H522 lung
SF-539 CNS = tested on: SF-539 CNS

Structure (SMILES) | TGI (A549 NSCLC) | TGI (ACHN renal) | TGI (HCC-2998 colon) | TGI (HCT-116 colon) | TGI (HCT-15 colon) | TGI (HT29 colon) | TGI (IGROV1 ovarian) | TGI (K-562 leukemia) | TGI (LOX IMVI melanoma) | TGI (OVCAR-3 ovarian) | TGI (PC-3 prostate) | TGI (RPMI-8226 leukemia) | TGI (RXF 393 renal) | TGI (SF-295 CNS) | TGI (SK-MEL-5 melanoma) | TGI (SN12C renal) | TGI (SW-620 colon) | TGI (HOP-92 NSCLC) | TGI (NCI-H522 lung) | TGI (SF-539 CNS)
O=C(NCCNCCNC(=O)C(F)(F)F)C(F)(F)F | > 100 µM | > 100 µM | > 100 µM | > 100 µM | > 100 µM | > 100 µM | > 100 µM | > 100 µM | > 100 µM | > 100 µM | > 100 µM | > 100 µM | > 100 µM | > 100 µM | > 100 µM | > 100 µM | > 100 µM | – | – | –
CCCCCCCCCCCCn1[nH]c(C)c(C(=S)SCCCCCCCC)c1=O | > 100 µM | > 100 µM | > 100 µM | > 100 µM | > 100 µM | > 100 µM | > 100 µM | > 100 µM | > 100 µM | > 100 µM | – | > 35.7 µM | > 80.9 µM | > 100 µM | > 100 µM | > 100 µM | > 62 µM | > 100 µM | > 100 µM | > 100 µM
CC(=O)NC(CCCNC(=O)NCCCl)C(=O)NCc1ccccc1 (stereo not given) | > 100 µM | > 100 µM | > 100 µM | > 100 µM | > 100 µM | > 100 µM | – | > 100 µM | – | > 100 µM | – | > 100 µM | > 100 µM | > 100 µM | > 100 µM | > 100 µM | > 100 µM | > 100 µM | > 100 µM | > 100 µM
COC(=O)c1nc(-c2nc(CCNC(=O)OC(C)(C)C)sc2Cl)sc1Cl | > 100 µM | > 100 µM | > 100 µM | > 100 µM | > 100 µM | > 100 µM | > 100 µM | > 100 µM | – | > 100 µM | > 100 µM | > 100 µM | > 100 µM | > 100 µM | > 100 µM | – | > 100 µM | 67.2 µM | – | > 100 µM
CCCC(=O)OCC1OC(n2cc(F)c(=O)[nH]c2=O)C(F)C1OC(=O)CCC (stereo not given) | > 100 µM | > 100 µM | – | > 100 µM | > 100 µM | > 100 µM | > 100 µM | > 100 µM | > 100 µM | > 100 µM | > 100 µM | > 100 µM | > 100 µM | > 100 µM | > 100 µM | > 100 µM | > 100 µM | > 100 µM | > 100 µM | 27.5 µM
Cn1c2ccccc2c2nc3ccccc3c(Cl)c21 | > 100 µM | – | – | > 100 µM | > 100 µM | > 100 µM | > 100 µM | > 100 µM | > 100 µM | > 100 µM | > 100 µM | > 100 µM | > 100 µM | > 100 µM | – | > 100 µM | > 100 µM | – | > 100 µM | > 100 µM
CN(NC(=O)/C(=C\c1ccco1)NC(=O)c1ccccc1)c1cn[nH]c(=O)c1Cl | > 100 µM | > 100 µM | – | > 100 µM | > 100 µM | > 100 µM | > 100 µM | > 100 µM | 58.2 µM | > 100 µM | > 100 µM | 50.5 µM | > 100 µM | > 100 µM | 94.9 µM | > 100 µM | > 100 µM | > 100 µM | 89.3 µM | 62 µM
CCc1cccc(C(C)CC)c1NC(=O)C(=O)C(CC(=O)Nc1ccc(Cl)c(Cl)c1)C(=O)OC (stereo not given) | > 100 µM | 69.8 µM | > 100 µM | > 100 µM | > 100 µM | > 100 µM | > 100 µM | > 100 µM | – | > 100 µM | – | > 100 µM | > 100 µM | > 100 µM | – | > 100 µM | > 100 µM | > 100 µM | > 100 µM | > 100 µM
CC1(C)N=C(C(=O)c2ccccc2)N(O)C1(O)c1ccccc1 (stereo not given) | > 100 µM | > 100 µM | > 100 µM | > 100 µM | > 100 µM | > 100 µM | > 100 µM | > 100 µM | > 100 µM | > 100 µM | > 100 µM | > 100 µM | > 100 µM | > 100 µM | > 100 µM | > 100 µM | > 100 µM | > 100 µM | – | > 100 µM
Nc1cc(N2CCOCC2)nc(=O)n1-c1ccc(Cl)cc1 | > 100 µM | > 100 µM | > 100 µM | > 100 µM | > 100 µM | > 100 µM | > 100 µM | > 100 µM | > 100 µM | > 100 µM | > 100 µM | > 100 µM | – | > 100 µM | > 100 µM | > 100 µM | > 100 µM | > 100 µM | – | > 100 µM
CC(=O)N/N=C1/CC[C@@]2(C)C(=CC[C@H]3C4CCC(C(C)CCCC(C)C)[C@@]4(C)CCC32)C1(C)C (stereo not given in full) | > 100 µM | > 100 µM | – | > 100 µM | > 100 µM | > 100 µM | > 100 µM | > 100 µM | > 100 µM | > 100 µM | > 100 µM | > 100 µM | – | > 100 µM | > 100 µM | > 100 µM | > 100 µM | > 100 µM | > 100 µM | –
